From ChEMBL document CHEMBL1921701, “Synthesis of GSK3β mimetic inhibitors of Akt featuring a novel extended dipeptide surrogate” (Bioorg Med Chem Lett, 2011)

Legend:
[1] = target: T1, RAC-alpha serine/threonine-protein kinase (Homo sapiens, UniProt P31749); assay: Inhibition of His-tagged ATP-binding domain of AKT1 assessed as GRPRTSSFAEG crosstide phosphorylation using [33P]ATP
[2] = target: T1, RAC-alpha serine/threonine-protein kinase; assay: Inhibition of His-tagged ATP-binding domain of AKT1 assessed as residual activity by measuring GRPRTSSFAEG crosstide phosphorylation at 50 uM using [33P]ATP

T1 sequence (P31749 whole entry, the tested form may be a part): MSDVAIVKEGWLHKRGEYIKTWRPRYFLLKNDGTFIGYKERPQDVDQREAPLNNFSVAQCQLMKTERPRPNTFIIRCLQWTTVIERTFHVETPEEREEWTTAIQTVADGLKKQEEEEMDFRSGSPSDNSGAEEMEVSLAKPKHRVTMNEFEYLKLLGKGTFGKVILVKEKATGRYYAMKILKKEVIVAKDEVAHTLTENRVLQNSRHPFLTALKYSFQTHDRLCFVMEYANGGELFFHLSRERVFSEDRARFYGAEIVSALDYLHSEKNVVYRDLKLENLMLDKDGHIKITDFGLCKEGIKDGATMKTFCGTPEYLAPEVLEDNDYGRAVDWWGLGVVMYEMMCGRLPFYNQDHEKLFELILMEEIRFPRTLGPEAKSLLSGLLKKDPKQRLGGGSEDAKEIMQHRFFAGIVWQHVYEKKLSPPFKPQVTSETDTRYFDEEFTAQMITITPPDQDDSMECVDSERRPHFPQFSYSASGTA

Row | SMILES | IC50 [1] [µM] | Activity [2] [%] | inhibition [1]
1 | CC(C)[C@H](NC(=O)[C@@H]1CC[C@H]2[C@H](NC(=O)CCCCN=C(N)N)COC(=O)N12)C(=O)NC(Cc1ccccc1)C(=O)NCc1ccccc1 (mixture of isomers) | 40.2 |  | 
2 | CC(C)[C@H](NC(=O)[C@@H]1CC[C@H]2[C@H](NC(=O)[C@H](CCCNC(=N)N)NC(=O)c3ccccc3)COC(=O)N12)C(=O)NC(Cc1ccccc1)C(=O)NCc1ccccc1 (mixture of isomers) | 16.3 | 14.6 | Dose-dependent effect
3 | CC(C)[C@H](NC(=O)[C@@H]1CC[C@H]2[C@H](NC(=O)[C@H](CCCN=C(N)N)NC(=O)Cc3ccccc3)COC(=O)N12)C(=O)NC(Cc1ccccc1)C(=O)NCc1ccccc1 (mixture of isomers) | 15 |  | 
4 | CC(C)[C@H](NC(=O)[C@@H]1CC[C@H]2[C@H](NC(=O)[C@H](CCCN=C(N)N)NC(=O)OCc3ccccc3)COC(=O)N12)C(=O)NC(Cc1ccccc1)C(=O)NCc1ccccc1 (mixture of isomers) | 3.1 |  | 
5 | CC(C)[C@H](NC(=O)[C@@H]1CC[C@H]2[C@H](NC(=O)CCCCNC(=N)N)COC(=O)N12)C(=O)NC(Cc1ccccc1)C(=O)NCc1ccccc1 (mixture of isomers) |  | 21.1 | Dose-dependent effect
6 | CC(C)[C@H](NC(=O)[C@@H]1CC[C@H]2[C@H](NC(=O)CNC(=N)N)COC(=O)N12)C(=O)NC(Cc1ccccc1)C(=O)NCc1ccccc1 (mixture of isomers) |  | 89.4 | 
7 | CC(C)[C@H](NC(=O)[C@@H]1CC[C@H]2[C@H](NC(=O)[C@H](CCCNC(=N)N)NC(=O)Cc3ccccc3)COC(=O)N12)C(=O)NC(Cc1ccccc1)C(=O)NCc1ccccc1 (mixture of isomers) |  | 16.8 | Dose-dependent effect
8 | CC(C)[C@H](NC(=O)[C@@H]1CC[C@H]2[C@H](NC(=O)[C@H](CCCNC(=N)N)NC(=O)OCc3ccccc3)COC(=O)N12)C(=O)NC(Cc1ccccc1)C(=O)NCc1ccccc1 (mixture of isomers) |  | 2.2 | Dose-dependent effect
